From patent US20240041922A1, “METHODS AND COMPOSITIONS” (Monash University, priority 2020, published 2024)
“Also recorded” adds a separate entry of the source. Where two headings read alike, the source gives them in different places.

Experiments:
C2C12 myoblasts = experiment: C2C12 myoblast proliferation (EdU incorporation); type: cell-based, mouse
Experimental: Larvae: Labelling and detection was carried out as previously described (Nguyen, P. D. et al. Muscle stem cells undergo extensive clonal drift during tissue growth via Meox1-mediated induction of G2 cell-cycle arrest. […] Cell culture: Cells were incubated for 1 h in media supplemented with 10 μM EdU. […] Cells were processed using the Click-iTTM EdU Alexa FluroTM 647 imaging Kit (Thermo Fisher) following the manufacturer's protocol. The mouse muscle cell line […]. Serial passaging and differentiation of myogenic cells isolated from dystrophic mouse muscle. Nature 270, 725 (1977) were cultured in growth media (Dulbecco's Modified Eagle Medium (4.5 g/l D-Glucose, No L Glutamine, No Sodium Pyruvate (Gibco))+20% Fetal Bovine Solution-One Shot (Gibco)+1% Glut Max 100x (Gibco)). Cells were maintained at 37° C., 5% CO2. Cells at 70% confluence, passage 8 were extracted from T75 flasks with 0.025% Tryspin EDTA (Gibco), neutralised in growth media, spun at 180×g for 5 min to pellet cells. The cells were then resuspended in 10 ml of fresh growth media. 500 μl of cells were plated on a 8-well on cover glass II (Sarstedt) chamber slide at a density of 1×10^3 cells/ml. Cells were left 4 h at 37° C. to re-attach. For drug treatments, the media were supplemented with appropriate doses and cultured for 6 h.

PAX7+ satellite cells = experiment: Primary mouse myoblast mono- and co-cultures, PAX7+ satellite cell proliferation (EdU); type: cell-based; conditions: for satellite cell proliferation on supplementation: myoblast monoculture (MB) and MB+3T3 co-culture, 24 h
Experimental: Larvae: Labelling and detection was carried out as previously described (Nguyen, P. D. et al. Muscle stem cells undergo extensive clonal drift during tissue growth via Meox1-mediated induction of G2 cell-cycle arrest. […] Cell culture: Cells were incubated for 1 h in media supplemented with 10 μM EdU. […] Cells were processed using the Click-iTTM EdU Alexa FluroTM 647 imaging Kit (Thermo Fisher) following the manufacturer's protocol. For isolation of primary mouse myoblasts, limb skeletal muscle from E17.5 C57/BL6J mice were minced and digested in 0.125% Trypsin at 37° C. for 20 min. […] Myoblasts were again depleted for fibroblasts prior to co-culturing on gelatin-coated 48 well plates in DMEM+20% FBS+10% L929-conditioned medium. 100,000 myoblasts were plated with either 7,500 MafB/c-Maf deficient (Maf-DKO) macrophages (Aziz, A., Soucie, E., Sarrazin, […]. MafB/c-Maf deficiency enables self-renewal of differentiated functional macrophages. […] For drug treatments, the media were supplemented with appropriate doses and cultured for 24 h.

[1] = system: wound-resident muscle stem cells; experiment: Larval zebrafish needle stab muscle injury, wound site proliferation (EdU); type: in vivo
Experimental: 4dpf larvae were anaesthetized in 0.01% tricaine (MS-222) (Sigma-Aldrich) in Ringer's solution. Mechanical injures were targeted either to the dorsal or ventral myotome above the cloaca when the larvae is oriented dorsal to the top, anterior to the left. Needle-stick injury was carried out as previously described (Gurevich, D. B. el al. Asymmetric division of clonal muscle stem cells co-ordinate muscle regeneration in vivo. Science 353 6295 aad9969 (2016)). Briefly, the myotome was subjected to a single 30-gauge needle puncture that generates an extensive injury with many damaged muscle fibres. For laser-induced injury, anaesthetised larvae were mounted in a thin layer of 1% low-melt agarose in Ringer's solution. Injuries were carried out using a UV-nitrogen laser pulsed through a coumarin 440 nm dye cell coupled to a Zeiss Axioplan microscope (MicroPoint Laser System, Andor Technology). On average a laser injury required pulses for 5-10 sec from laser beams focused through a 40× water immersion objective. For time-lapse analysis of the immediate response to injury, muscle fibre ablations were achieved using a SIM scanner (Olympus) at 790 nm and 200 msec dwell time at 100% laser power on an Olympus FVMPE-RS upright multi-photon microscope equipped with a 25×/1.05 water immersion objective. Injury-responding macrophages were tracked using the manual tracking plugin in Fiji.
Cell ablation was carried out as previously described (Pisharath, H. & Parsons, M. J. in Zebrafish 133-143 (Springer, 2009)) with minor modifications. Larvae at the appropriate stage were incubated in 5-10 mM metronidazole (Mtz) (Sigma-Aldrich) in Ringer's solution and daily refreshed until experimental end point. Drug treatments were carried out by incubating 4 dpf needle stick injured larvae in 5 and 10 μM cenicriviroc (CVC) (Med Chem Express) and 5 and 10 μM maraviroc (MVC) (Med Chem Express) in Ringer's solution immediately post injury and refreshed daily.
The effect of drug treatment on laser ablation muscle injury was assayed by treating larvae with 5 μM CVC for 2 h prior to injury and with larvae being maintained in the drug until experimental end point. […] Chemokine supplementation experiments were carried out in plasticware coated with 0.1% bovine serum albumin (BSA) overnight (rinsed in Ringer's solution prior to use) to minimise protein adsorption. Larvae were treated with 57 nM recombinant human visfatin (hrNAMPT(1)) (PeproTech), 57 nM recombinant murine CCL8/MCP-2 (mrCCL8) (PeproTech) and combinations with Mtz and CVC.
Larvae: Labelling and detection was carried out as previously described (Nguyen, P. D. et al. Muscle stem cells undergo extensive clonal drift during tissue growth via Meox1-mediated induction of G2 cell-cycle arrest. Cell Stem Cell 21, 107-119. e106 (2017))^55 with minor alteration. 6 dpf/2 dpi larvae were pulsed with 2.5 nM EdU (Thermo Fisher) for 1h and chased for a further 1.5 h prior to fixation. Cell culture: Cells were incubated for 1 h in media supplemented with 10 μM EdU. Following Edu pulse, C2C12 cells were fixed immediately, while primary mouse myoblast co-cultures were rinsed in PBS, replaced with media and incubated for a further 2 h following which the cells were fixed. Cells were processed using the Click-iT™ EdU Alexa Fluro™ 647 imaging Kit (Thermo Fisher) following the manufacturer's protocol.

rectus femoris muscle = conditions: for muscle architecture / regenerated muscle area: delivered in fibrin hydrogel, 10 days post treatment
Experimental: Injury: male C57BL/6J mice aged between 10-12 weeks were anesthetised and shaved on the hind left leg. A unilateral incision measuring approximately 1 cm was made exposing the underlying fascia. The left hind limb was extended and exteriorised via the incision site by retracting the surrounding tissue. A 3×4 mm full thickness segment of the rectus femoris muscle was removed. Directly after, the injury site was filled with fibrin hydrogel with or without 200 ng or 500 ng of hrNAMPT(1) (hydrogel components; 40 μl, 8 mg/ml human fibrinogen (FIB3, Enzyme Research Laboratories), 4 U/ml bovine thrombin (T4648, Sigma), 5 mM CaCl2, 17 μg/ml of aprotinin (ab146286, Abcam)) which polymerized in the defect. Then, the soft tissue was closed with stitches.
Histology: 10 days after treatment, animals were sacrificed and the wounds were harvested for histological analysis. The defect site and associated proximal and distal segment of the quadriceps muscle (including the rectus femoris, vastus medialis and vastus lateralis) were excised and embedded. Histological analysis was performed on serial paraffin sections (4 μm sections collected passing the central portion of the wound). Multiple sections were stained with Masson's Trichrome (to detect collagen deposition) and the extent of fibrosis (represented by a blue stain) was measured by histomorphometric analysis using ImageJ software (version 1.51h, National Institutes of Health, USA). To maintain uniformity between samples, the length of the vastus medialis taken at multiple depths ranging from 1.0 mm-3.0 mm serves as a reference between tissue sections to determine the depth of sectioning. For fibrotic quantification, average muscle fibrosis area at each depth was scored and normalised with the area of the rectus femoris. Total area of muscle is determined by calculating the average area of rectus femoris at each depth.
Immune cell profiling and PAX7^+ cell quantification with flow cytometry: 4, 6 or 8 days after treatment with either 0.5 μg of hrNAMPT(1) delivered by fibrin hydrogel or control fibrin hydrogel only, mice were euthanised via CO2 asphyxiation. The defect site and associated proximal and distal segment of the quadricep muscles were isolated and placed into 890 μl of complete RPMI (with 10% FBS and 2 mM Glutamax, Life Technologies). The tissue was minced with surgical scissors and 100 μl of 10 mg/ml Collagenase II (Sigma-Aldrich) and 10 μl of 10 mg/ml DNAse I (Biolabs), while 100 μl of dispase II (10 mg/ml) was added into the digestion for PAX7 acquisition. The mixture was vortexed and incubated at 37° C. for 45 min. The collagenase was then inactivated with 500 μl ice-cold PBS, 5% FBS, 5 mM EDTA. The mixture was strained subsequently through 70 μm and 40 μm filters. The cell suspension was further diluted with 1 ml complete RPMI and centrifuged for 10 min at 300× g. The supernatant was discarded and the pellet was resuspended in 250 μl complete RPMI and aliquoted into wells of a 96-well U bottom plate for antibody staining. The cell solutions were centrifuged, supernatant discarded, and washed with PBS. The cell viability stain used was 100 μl of Zombie Aqua (Biolegend) Live-Dead dye diluted in PBS (1:400 dilution) and incubated for 30 min at 4° C. The cells were then blocked with FcX (anti-CD16/32 antibodies, Biolegend, 1 μg/ml) flow cytometry buffer (PBS, 5% FBS). The cells were kept for 20 min at 4° C., washed with flow cytometry buffer and centrifuged. […]

[2] = single dose 0.5 μg in fibrin hydrogel, vs fibrin only

## mrCCL2: recombinant murine CCL2/MCP-1 (PeproTech), CCR2-specific ligand
C2C12 myoblasts; 6 h in growth media
  myoblast proliferation, factor added alone: failed to increase proliferative rates beyond that of the control

## Nicotinamide phosphoribosyltransferase [NAMPT]
PAX7+ satellite cells; MB+macrophage co-culture
  satellite cell proliferation on supplementation in presence of macrophages: did not increase satellite cell proliferation in the presence of macrophages
PAX7+ satellite cells
  satellite cell proliferation on supplementation: enhanced proliferation; also recorded: stimulates proliferation of PAX7^+ satellite cells
PAX7+ satellite cells; listed as hrNAMPT
  satellite cell proliferation on supplementation: able to increase the proliferation of satellite cells in MB and MB+3T3 culture conditions
[1]; 5 mM Mtz added at 4 dpf/0 dpi
  wound site proliferation in macrophage-ablated larvae: rescues the proliferation deficit generated by ablating macrophages; also recorded: rescues the proliferative deficit that occurs upon macrophage ablation; also recorded: functioned to rescue wound site proliferation in macrophage-ablated larvae
[1]; Ccr5 inhibited by CVC
  wound site proliferation, NAMPT together with CVC: failed to rescue the proliferation defect; also recorded: resistant to NAMPT mediated rescue; also recorded: failed to rescue the proliferation deficit when supplemented in conjunction with CVC
[1]; macrophages ablated with Mtz
  increase in wound site proliferation above control response in macrophage-ablated larvae: 10.96±3.55%
[1]; needle stab injury, agent alone
  wound site muscle stem cell proliferation: specifically enhanced wound-resident muscle stem cell proliferation; also recorded: increases wound site proliferation in control settings
[1]; needle stab injury, supplementation
  increase in muscle stem cell proliferation within the wound site vs control: 30.70±4.26%
Rectus femoris muscle; 6 days post treatment
  centrally nucleated muscle fibres: significant increase the number of centrally nucleated de novo muscle fibres
Rectus femoris muscle
  muscle architecture / regenerated muscle area: significantly increased the regenerated muscle area
Rectus femoris muscle; listed as hrNAMPT
  muscle architecture / regenerated muscle area: able to fully restore muscle architecture
Rectus femoris muscle; [2]
  decrease in average fibrotic area: 34.76±9.32%
  increase in average muscle area: 3.276±0.4926 mm^2

## O=C(NCC(=O)N1CC[C@H](N[C@H]2CC[C@@](O)(c3ccc(-c4ncccn4)cn3)CC2)C1)c1cccc(C(F)(F)F)c1 [PF-4136309, reference compound]
C2C12 myoblasts; co-administration with NAMPT, 6 h
  effect on NAMPT-induced myoblast proliferation: does not hinder NAMPT's stimulatory effect on myoblast proliferation
PAX7+ satellite cells; MB+macrophage co-culture, 100 nM inhibitor
  effect on macrophage-stimulated satellite cell proliferation: had no negative effect
PAX7+ satellite cells; with hrNAMPT, 100 nM inhibitor
  effect on NAMPT-stimulated satellite cell proliferation: maintained
